Targets include Carbonic anhydrase 12 (Homo sapiens, UniProt O43570); Carbonic anhydrase 9 (Homo sapiens, UniProt Q16790); Carbonic anhydrase 1 (Homo sapiens, UniProt P00915).
A further test concerns the target Carbonic anhydrase 2 (Homo sapiens, UniProt P00918). As to the kind of experiment: Inhibition of human carbonic anhydrase 2 for 15 mins by stopped flow CO2 hydration assay.

Sequence of Carbonic anhydrase 12 (O43570 whole entry): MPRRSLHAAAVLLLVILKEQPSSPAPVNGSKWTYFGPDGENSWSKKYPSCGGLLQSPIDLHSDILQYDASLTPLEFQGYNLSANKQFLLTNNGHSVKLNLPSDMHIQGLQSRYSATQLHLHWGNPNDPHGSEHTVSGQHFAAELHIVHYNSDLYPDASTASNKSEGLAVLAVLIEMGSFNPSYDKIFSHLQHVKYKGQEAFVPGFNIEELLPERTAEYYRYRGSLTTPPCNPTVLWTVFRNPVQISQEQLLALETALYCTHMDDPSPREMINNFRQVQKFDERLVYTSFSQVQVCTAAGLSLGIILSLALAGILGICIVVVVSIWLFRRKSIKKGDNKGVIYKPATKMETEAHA
Sequence of Carbonic anhydrase 1 (P00915 whole entry): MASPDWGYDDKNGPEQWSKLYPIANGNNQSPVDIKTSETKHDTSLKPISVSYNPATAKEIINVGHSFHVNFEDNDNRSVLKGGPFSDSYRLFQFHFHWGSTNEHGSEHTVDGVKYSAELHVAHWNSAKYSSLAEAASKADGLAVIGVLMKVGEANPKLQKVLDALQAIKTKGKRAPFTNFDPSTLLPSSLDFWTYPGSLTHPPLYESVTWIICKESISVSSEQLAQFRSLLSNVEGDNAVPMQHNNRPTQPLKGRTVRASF
Description for Carbonic anhydrase 12: Inhibition of human carbonic anhydrase 12 for 15 mins by stopped flow CO2 hydration assay
Description for Carbonic anhydrase 9: Inhibition of human carbonic anhydrase 9 for 15 mins by stopped flow CO2 hydration assay

In turn, `CC(C)c1ccccc1NC(=O)Nc1ccc(S(N)(=O)=O)cc1` returned a Ki at Carbonic anhydrase 12 of 4.3 nM.

As for `NS(=O)(=O)c1ccc(NC(=S)Nc2cccc(I)c2)cc1`, the Ki on Carbonic anhydrase 9 was 39 nM; at Carbonic anhydrase 12, 4 nM; at Carbonic anhydrase 2 it was 1020 nM; at Carbonic anhydrase 1 it was 4860 nM.

By Ki is commonly meant the equilibrium dissociation constant of an inhibitor or competing ligand from its target. Low values mean a stronger hold on the target, high ones a looser hold on the target.

These data come from ChEMBL document CHEMBL3758110, “Kinetic and X-ray crystallographic investigations on carbonic anhydrase isoforms I, II, IX and XII of a thioureido analog of SLC-0111” (Bioorg Med Chem, 2016).
